Measurements published in patent US8217048B2, “Inhibitors of serine proteases, particularly HCV NS3-NS4A protease” (Vertex Pharmaceuticals Incorporated, priority 2003, dated 2012).
Values joined by “and” are separate entries in the source; they are usually repeats but may differ in a detail not shown here. Equal entries are not always repeated.

Columns and labels:
HCV NS3-NS4A protease = biological target: T1, HCV NS3-NS4A protease (Hepatitis C virus genotype 1a, UniProt P27958); experiment: HCV Ki Assay (enzyme, Example 5); assay type: biochemical; conditions: Ki values, tested according to Example 5 (enzyme); 5AB substrate, tNS3 with KK4A
T1 construct: The buffer, KK4A, DTT, and tNS3 were combined
T1 sequence (P27958 1658-1711): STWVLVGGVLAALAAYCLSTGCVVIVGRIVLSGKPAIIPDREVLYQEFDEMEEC
T1 sequence (P27958 1027-1208): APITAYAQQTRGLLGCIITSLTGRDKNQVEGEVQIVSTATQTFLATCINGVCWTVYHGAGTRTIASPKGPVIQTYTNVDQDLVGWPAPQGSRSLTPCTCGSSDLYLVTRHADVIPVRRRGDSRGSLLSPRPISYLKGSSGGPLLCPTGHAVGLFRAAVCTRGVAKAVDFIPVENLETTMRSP
Protocol: HPLC Microbore Method for Separation of 5AB Substrate and Products
NH2-Glu-Asp-Val-Val-(alpha)Abu-Cys-Ser-Met-Ser-Tyr-COOH
A stock solution of 20 mM 5AB (or concentration of your choice) was made in DMSO w/0.2M DTT. This was stored in aliquots at −20 C.
Buffer: 50 mM HEPES, pH 7.8; 20% glycerol; 100 mM NaCl
Total assay volume was 100 μL
The buffer, KK4A, DTT, and tNS3 were combined; distributed 78 μL each into wells of 96 well plate. This was incubated at 30 C for ˜5-10 min.
2.5 μL of appropriate concentration of test compound was dissolved in DMSO (DMSO only for control) and added to each well. This was incubated at room temperature for 15 min.
Initiated reaction by addition of 20 μL of 250 μM 5AB substrate (25 μM concentration is equivalent or slightly lower than the Km for 5AB).
Incubated for 20 min at 30 C.
Terminated reaction by addition of 25 μL of 10% TFA
Transferred 120 μL aliquots to HPLC vials
Separated SMSY product from substrate and KK4A by the following method:
Microbore Separation Method:
Instrumentation: Agilent 1100
Column thermostated chamber G1316A
Diode array detector G1315A
Solvent A=HPLC grade water+0.1% TFA
Solvent B=HPLC grade acetonitrile+0.1% TFA
Stop time: 17 min Post-run time: 10 min.

[1] = tested on: Cells containing hepatitis C virus (HCV) replicon; experiment: HCV Replicon Cell Assay (Example 4); assay type: cell-based; conditions: 48 h, tested according to Example 4 (cell), 50% inhibition of HCV RNA level, 48-hour incubation
Protocol: HCV Replicon Cell Assay Protocol
Cells containing hepatitis C virus (HCV) replicon were maintained in DMEM containing 10% fetal bovine serum (FBS), 0.25 mg per ml of G418, with appropriate supplements (media A).
On day 1, replicon cell monolayer was treated with a trypsin:EDTA mixture, removed, and then media A was diluted into a final concentration of 100,000 cells per ml wit. 10,000 cells in 100 ul were plated into each well of a 96-well tissue culture plate, and cultured overnight in a tissue culture incubator at 37° C.
On day 2, compounds (in 100% DMSO) were serially diluted into DMEM containing 2% FBS, 0.5% DMSO, with appropriate supplements (media B). The final concentration of DMSO was maintained at 0.5% throughout the dilution series.
Media on the replicon cell monolayer was removed, and then media B containing various concentrations of compounds was added. Media B without any compound was added to other wells as no compound controls.
Cells were incubated with compound or 0.5% DMSO in media B for 48 hours in a tissue culture incubator at 37° C. At the end of the 48-hour incubation, the media was removed, and the replicon cell monolayer was washed once with PBS and stored at −80° C. prior to RNA extraction.
Culture plates with treated replicon cell monolayers were thawed, and a fixed amount of another RNA virus, such as Bovine Viral Diarrhea Virus (BVDV) was added to cells in each well, RNA extraction reagents (such as reagents from RNeasy kits) were added to the cells immediately to avoid degradation of RNA. Total RNA was extracted according the instruction of manufacturer with modification to improve extraction efficiency and consistency. Finally, total cellular RNA, including HCV replicon RNA, was eluted and stored at −80° C. until further processing.
A Taqman real-time RT-PCR quantification assay was set up with two sets of specific primers and probe. One was for HCV and the other was for BVDV. Total RNA extractants from treated HCV replicon cells was added to the PCR reactions for quantification of both HCV and BVDV RNA in the same PCR well. Experimental failure was flagged and rejected based on the level of BVDV RNA in each well. The level of HCV RNA in each well was calculated according to a standard curve run in the same PCR plate. The percentage of inhibition or decrease of HCV RNA level due to compound treatment was calculated using the DMSO or no compound control as 0% of inhibition. The IC50 (concentration at which 50% inhibition of HCV RNA level is observed) was calculated from the titration curve of any given compound.

Compound | Ki (HCV NS3-NS4A protease) | IC50 [1] [nM]
CCC[C@H](NC(=O)C1C[C@@H](Oc2ccc(Cl)cc2Cl)CN1C(=O)[C@@H](NC(=O)[C@@H](NC(=O)c1cnccn1)C1CCCCC1)C(C)(C)C)C(=O)C(=O)NC1CC1 (stereo partly shown) [Compound 2] | 100 to 300 nM | 500 to 1000
CCC[C@H](NC(=O)C1C[C@@H](Oc2cc(Cl)ccc2Cl)CN1C(=O)[C@@H](NC(=O)[C@@H](NC(=O)c1cnccn1)C1CCCCC1)C(C)(C)C)C(=O)C(=O)NC1CC1 (stereo partly shown) [Compound 3] | 100 to 300 nM | 500 to 1000
CCC[C@H](NC(=O)C1C[C@@H](Oc2ccccc2F)CN1C(=O)[C@@H](NC(=O)[C@@H](NC(=O)c1cnccn1)C1CCCCC1)C(C)(C)C)C(=O)C(=O)NC1CC1 (stereo partly shown) [Compound 4] | 100 to 300 nM | 500 to 1000
CCCC(NC(=O)C1CC(Oc2cccc(Cl)c2Cl)CN1C(=O)C(NC(=O)C(NC(=O)c1cnccn1)C1CCCCC1)C(C)(C)C)C(=O)C(=O)NC1CC1 (stereo not shown) [Compound 5] | 100 to 300 nM | 500 to 1000
CCC[C@H](NC(=O)C1C[C@@H](Oc2ccccc2C(F)(F)F)CN1C(=O)[C@@H](NC(=O)[C@@H](NC(=O)c1cnccn1)C1CCCCC1)C(C)(C)C)C(=O)C(=O)NC1CC1 (stereo partly shown) [Compound 6] | > 300 nM | > 1000
CCC[C@H](NC(=O)C1C[C@@H](Oc2cccc(F)c2F)CN1C(=O)[C@@H](NC(=O)[C@@H](NC(=O)c1cnccn1)C1CCCCC1)C(C)(C)C)C(=O)C(=O)NC1CC1 (stereo partly shown) [Compound 7] | 100 to 300 nM | < 500
CCC[C@H](NC(=O)C1C[C@@H](Oc2cc(F)ccc2F)CN1C(=O)[C@@H](NC(=O)[C@@H](NC(=O)c1cnccn1)C1CCCCC1)C(C)(C)C)C(=O)C(=O)NC1CC1 (stereo partly shown) [Compound 8] | 100 to 300 nM | 500 to 1000
CCC[C@H](NC(=O)C1C[C@@H](Oc2ccccc2OC(F)(F)F)CN1C(=O)[C@@H](NC(=O)[C@@H](NC(=O)c1cnccn1)C1CCCCC1)C(C)(C)C)C(=O)C(=O)NC1CC1 (stereo partly shown) [Compound 9] | > 300 nM | 
CCC[C@H](NC(=O)C1C[C@@H](Oc2c(F)cccc2F)CN1C(=O)[C@@H](NC(=O)[C@@H](NC(=O)c1cnccn1)C1CCCCC1)C(C)(C)C)C(=O)C(=O)NC1CC1 (stereo partly shown) [Compound 10] | 100 to 300 nM | 500 to 1000
CCC[C@H](NC(=O)C1C[C@@H](Oc2cc(C(F)(F)F)cc(C(F)(F)F)c2)CN1C(=O)[C@@H](NC(=O)[C@@H](NC(=O)c1cnccn1)C1CCCCC1)C(C)(C)C)C(=O)C(=O)NC1CC1 (stereo partly shown) [Compound 11] | > 300 nM | > 1000
CCC[C@H](NC(=O)C1C[C@@H](Oc2cc(Cl)cc(Cl)c2)CN1C(=O)[C@@H](NC(=O)[C@@H](NC(=O)c1cnccn1)C1CCCCC1)C(C)(C)C)C(=O)C(=O)NC1CC1 (stereo partly shown) [Compound 12] | 100 to 300 nM | < 500
CCC[C@H](NC(=O)[C@@H]1C[C@@H](Oc2ccc(C(F)(F)F)cc2)CN1C(=O)[C@@H](NC(=O)[C@@H](NC(=O)c1cnccn1)C1CCCCC1)C(C)(C)C)C(=O)C(=O)NC1CC1 [Compound 13] | 100 to 300 nM | < 500
CCC[C@H](NC(=O)[C@@H]1C[C@@H](Oc2ccccc2-c2ccccc2)CN1C(=O)[C@@H](NC(=O)[C@@H](NC(=O)c1cnccn1)C1CCCCC1)C(C)(C)C)C(=O)C(=O)NC1CC1 [Compound 17] | > 300 nM | 
CCC[C@H](NC(=O)[C@@H]1C[C@@H](Oc2cccc(OC)c2)CN1C(=O)[C@@H](NC(=O)[C@@H](NC(=O)c1cnccn1)C1CCCCC1)C(C)(C)C)C(=O)C(=O)NC1CC1 [Compound 21] | > 300 nM | 
CCC[C@H](NC(=O)[C@@H]1C[C@@H](Oc2cccc(OC)c2OC)CN1C(=O)[C@@H](NC(=O)[C@@H](NC(=O)c1cnccn1)C1CCCCC1)C(C)(C)C)C(=O)C(=O)NC1CC1 [Compound 23] | 100 to 300 nM | 
CCC[C@H](NC(=O)[C@@H]1C[C@@H](Oc2cccc(Cl)n2)CN1C(=O)[C@@H](NC(=O)[C@@H](NC(=O)c1cnccn1)C1CCCCC1)C(C)(C)C)C(=O)C(=O)NC1CC1 [Compound 25] | 100 to 300 nM | 
CCCC(NC(=O)[C@H]1C[C@H](Oc2ccc(C(F)(F)F)cn2)CN1C(=O)C(NC(=O)C(NC(=O)c1cnccn1)C1CCCCC1)C(C)(C)C)C(=O)C(=O)NC1CC1 (stereo partly shown) [Compound 27] | > 300 nM | 
CCCC(NC(=O)[C@H]1C[C@H](Oc2ccc(-c3ccccc3)nn2)CN1C(=O)C(NC(=O)C(NC(=O)c1cnccn1)C1CCCCC1)C(C)(C)C)C(=O)C(=O)NC1CC1 (stereo partly shown) [Compound 28] | > 300 nM | 
CCCC(NC(=O)[C@H]1C[C@H](Oc2ccnc(C(F)(F)F)n2)CN1C(=O)C(NC(=O)C(NC(=O)c1cnccn1)C1CCCCC1)C(C)(C)C)C(=O)C(=O)NC1CC1 (stereo partly shown) [Compound 29] | > 300 nM | 
CCCC(NC(=O)[C@H]1C[C@H](Oc2cc(C(F)(F)F)ncn2)CN1C(=O)C(NC(=O)C(NC(=O)c1cnccn1)C1CCCCC1)C(C)(C)C)C(=O)C(=O)NC1CC1 (stereo partly shown) [Compound 30] | 100 to 300 nM | 
CCCC(NC(=O)[C@H]1C[C@H](Oc2nccc(-c3ccccc3)c2C#N)CN1C(=O)C(NC(=O)C(NC(=O)c1cnccn1)C1CCCCC1)C(C)(C)C)C(=O)C(=O)NC1CC1 (stereo partly shown) [Compound 31] | 100 to 300 nM | 
CCCC(NC(=O)[C@H]1C[C@H](Oc2ncncc2F)CN1C(=O)C(NC(=O)C(NC(=O)c1cnccn1)C1CCCCC1)C(C)(C)C)C(=O)C(=O)NC1CC1 (stereo partly shown) [Compound 32] | < 100 nM | 
CCCC(NC(=O)[C@H]1C[C@H](Oc2ncccc2[N+](=O)[O-])CN1C(=O)C(NC(=O)C(NC(=O)c1cnccn1)C1CCCCC1)C(C)(C)C)C(=O)C(=O)NC1CC1 (stereo partly shown) [Compound 33] | 100 to 300 nM | 
CCC[C@H](NC(=O)[C@@H]1C[C@@H](Oc2cccc3ccccc23)CN1C(=O)[C@@H](NC(=O)[C@@H](NC(=O)c1ncc[nH]1)C1CCCCC1)C(C)(C)C)C(=O)C(=O)NC1CC1 [Compound 37] | < 100 nM | 
CCC[C@H](NC(=O)[C@@H]1C[C@@H](Oc2ccc(C(=O)OC)cc2)CN1C(=O)[C@@H](NC(=O)[C@@H](NC(=O)c1cnccn1)C1CCCCC1)C(C)(C)C)C(=O)C(=O)NC1CC1 [Compound 52] | < 100 nM | 
CCC[C@H](NC(=O)[C@@H]1C[C@@H](Oc2ccc(Cl)cn2)CN1C(=O)[C@@H](NC(=O)[C@@H](NC(=O)[C@H](C)NC(=O)OC)C1CCCCC1)C(C)(C)C)C(=O)C(=O)NC1CC1 [Compound 69] | < 100 nM | 
CCCC(NC(=O)[C@H]1C[C@H](Oc2nccc(C(F)(F)F)n2)CN1C(=O)C(NC(=O)C(NC(=O)c1cnccn1)C1CCCCC1)C(C)(C)C)C(=O)C(=O)NC1CC1 (stereo partly shown) [Compound 74] | > 300 nM | 
CCC[C@H](NC(=O)[C@@H]1C[C@@H](Oc2ccc(Cl)cn2)CN1C(=O)[C@@H](NC(=O)[C@@H](NC(=O)c1cnccn1)C1CCCCC1)C(C)(C)C)C(=O)C(=O)CC(C)C [Compound 75] | > 300 nM | 
C=CCCC(=O)C(=O)[C@H](CCC)NC(=O)[C@@H]1C[C@@H](Oc2ccc(Cl)cn2)CN1C(=O)[C@@H](NC(=O)[C@@H](NC(=O)c1cnccn1)C1CCCCC1)C(C)(C)C [Compound 76] | 100 to 300 nM and > 300 nM | 
